Where two headings read alike, the source gives them in different places. No end group written: not given here.
What was measured:
[1] = tested on: 84 human inflammatory cytokines and receptors; format: cell-based
VEEV TC-83 [2] = format: cell-based, Venezuelan equine encephalitis virus
[3] = tested on: IFNγ, IL1α, IL1β, IL2, IL4, IL6, IL10, IL12p70, TNFα; format: cell-based, human
EEEV (GA97 strain) = format: cell-based, eastern equine encephalitis virus
[4] = tested on: IFNγ, IL1α, IL1β, IL2, IL4, IL6, IL10, IL12p70, TNFα; format: cell-based, human; remark: listed apart in the source
VEEV TrD strain [5] = format: cell-based, Venezuelan equine encephalitis virus
RVFV (MP-12 strain) = format: cell-based, Rift Valley fever virus
HMC3 cells = conditions: 24 h
[6] = tested on: 84 human inflammatory cytokines and receptors; format: cell-based; remark: listed apart in the source
VEEV TrD strain [7] = format: cell-based, Venezuelan equine encephalitis virus; remark: listed apart in the source
VEEV TC-83 [8] = format: cell-based, Venezuelan equine encephalitis virus; remark: listed apart in the source
VEEV TC-83 [9] = format: cell-based, Venezuelan equine encephalitis virus; remark: listed apart in the source
VEEV TC-83 [10] = format: cell-based, Venezuelan equine encephalitis virus; remark: listed apart in the source
VEEV TC-83 [11] = format: cell-based, Venezuelan equine encephalitis virus; remark: listed apart in the source
VEEV TC-83 [12] = format: cell-based, Venezuelan equine encephalitis virus; remark: listed apart in the source
[13] = tested on: wild-type Trinidad Donkey (TrD) strain of VEEV; conditions: cited from earlier work
[14] = tested on: VEEV TC-83 vaccine strain; conditions: cited from earlier work

FAVVKFRFWVWWFRWR-NH2 [A2]
Fold Regulation, AIMP1 [1]: -2.17 | Fold Regulation, B2M [1]: -2.51 | Fold Regulation, C5 [1]: -3.11 | Fold Regulation, CCL1 [1]: -2.21 | Fold Regulation, CCL3 [1]: -11.1 | Fold Regulation, CCL4 [1]: -12.54 | Fold Regulation, CCL7 [1]: -3.26 | Fold Regulation, CCL8 [1]: -6.18 | Fold Regulation, CCL13 [1]: -2.73 | Fold Regulation, CCL17 [1]: -2.71 | Fold Regulation, CCL20 [1]: -2.91 | Fold Regulation, CCL23 [1]: -2.03 | Fold Regulation, CCL24 [1]: -2.6 | Fold Regulation, CCL26 [1]: -2.44 | Fold Regulation, CCR1 [1]: -2.78 | Fold Regulation, CCR2 [1]: -7.36 | Fold Regulation, CCR3 [1]: -2.71 | Fold Regulation, CCR5 [1]: -3.23 | Fold Regulation, CCR6 [1]: -5.15 | Fold Regulation, CCR8 [1]: -2.77 | Fold Regulation, CD40LG [1]: -8.44 | Fold Regulation, CSF1 [1]: -2.23 | Fold Regulation, CSF2 [1]: -7.67 | Fold Regulation, CSF3 [1]: -8.01 | Fold Regulation, CXCL1 [1]: -2.79 | Fold Regulation, CXCL2 [1]: -2.97 | Fold Regulation, CXCL3 [1]: -8.92 | Fold Regulation, CXCL5 [1]: -3.43 | Fold Regulation, CXCL6 [1]: -3.46 | Fold Regulation, CXCL8 [1]: -4.74 | Fold Regulation, CXCL9 [1]: -2.67 | Fold Regulation, CXCR1 [1]: -4.9 | Fold Regulation, CXCR2 [1]: -2.22 | Fold Regulation, FASLG [1]: -2.27 | Fold Regulation, HPRT1 [1]: -2.53 | Fold Regulation, IFNA2 [1]: -4.07 | Fold Regulation, IL1A [1]: -40.4 | Fold Regulation, IL1B [1]: -4.37 | Fold Regulation, IL1R1 [1]: -2.63 | Fold Regulation, IL1RN [1]: 2.19 | Fold Regulation, IL3 [1]: -2.76 | Fold Regulation, IL5 [1]: -5.46 | Fold Regulation, IL5RA [1]: -4.55 | Fold Regulation, IL7 [1]: 9.88 | Fold Regulation, IL9 [1]: -3.51 | Fold Regulation, IL9R [1]: -2.48 | Fold Regulation, IL10RA [1]: -3.22 | Fold Regulation, IL10RB [1]: -2.31 | Fold Regulation, IL13 [1]: -4.71 | Fold Regulation, IL15 [1]: -2.47 | Fold Regulation, IL16 [1]: -2.42 | Fold Regulation, IL17A [1]: -10.02 | Fold Regulation, IL17F [1]: -13.11 | Fold Regulation, IL21 [1]: -2.43 | Fold Regulation, IL27 [1]: -2.99 | Fold Regulation, LTA [1]: -4.72 | Fold Regulation, LTB [1]: -3.31 | Fold Regulation, NAMPT [1]: -2.42 | Fold Regulation, OSM [1]: -9.67 | Fold Regulation, RPLP0 [1]: -2.88 | Fold Regulation, SPP1 [1]: -2.4 | Fold Regulation, TNF [1]: -9.95 | Fold Regulation, TNFRSF11B [1]: -4.24 | Fold Regulation, TNFSF4 [1]: -2.68 | Fold Regulation, TNFSF10 [1]: -2.78 | Fold Regulation, TNFSF11 [1]: -4.37 | Fold Regulation, TNFSF13 [1]: -6.12 | Fold Regulation, TNFSF13B [1]: -3.19 | genes down regulated (twofold) [1]: 67 genes | genes out of 84 with greater than twofold change in regulation [1]: 71 genes | genes upregulated (greater than twofold) [1]: 4 genes | decrease in TC-83 infectious titers (VEEV TC-83 [2]): ~ 1,000 fold | secretion of cytokines from TC-83 infected cells [3]: inhibit secretion of cytokines | inhibition of replication of EEEV (EEEV (GA97 strain)): higher than tenfold | lower levels of EEEV replication, pre-treated cells (EEEV (GA97 strain)): ~ 4.5 fold | production of cytokines, pro-inflammatory and anti-inflammatory, from uninfected cells [4]: decreased the production of cytokines | TrD titer inhibition, cells treated at infection relative to pre-treated cells (VEEV TrD strain [5]): tenfold | decrease of TrD titers (VEEV TrD strain [5]): about 100 fold | inhibition of replication of RVFV (RVFV (MP-12 strain)): less than tenfold | CC50 (HMC3 cells): greater than 250 µg/mL | Fold Regulation, CCL2 [6]: -2.07 | genes above/below a twofold regulation change [6]: eight | decrease of TrD titers (VEEV TrD strain [7]): about 100 fold | decrease in extracellular genomic TC-83 RNA copy numbers (VEEV TC-83 [8]): more than 50% | decrease in intracellular genomic TC-83 RNA copy numbers (VEEV TC-83 [8]): more than 50% | inhibition of VEEV attachment (amount of viral RNA entering cells) (VEEV TC-83 [9]): inhibited VEEV attachment to cells | genomic TC-83 RNA copy numbers (intracellular and extracellular) (VEEV TC-83 [10]): reduced

FQAVKFRFWVWWFRWR-NH2 [A3]
Fold Regulation, C5 [1]: -4.7 | Fold Regulation, CCL1 [1]: -3.46 | Fold Regulation, CCL3 [1]: -6.01 | Fold Regulation, CCL4 [1]: -10.37 | Fold Regulation, CCL5 [1]: -2.56 | Fold Regulation, CCL17 [1]: -2.48 | Fold Regulation, CCL20 [1]: -2.88 | Fold Regulation, CCL26 [1]: -2.76 | Fold Regulation, CCR1 [1]: -2.01 | Fold Regulation, CCR8 [1]: -2.56 | Fold Regulation, CD40LG [1]: -13.61 | Fold Regulation, CSF1 [1]: -2.16 | Fold Regulation, CSF2 [1]: -6.65 | Fold Regulation, CSF3 [1]: -2.47 | Fold Regulation, CX3CL1 [1]: -40.25 | Fold Regulation, CXCL2 [1]: -2.14 | Fold Regulation, CXCL3 [1]: -7.92 | Fold Regulation, CXCL5 [1]: -2.3 | Fold Regulation, CXCL8 [1]: -3.42 | Fold Regulation, CXCL10 [1]: -2.5 | Fold Regulation, CXCL12 [1]: -2.21 | Fold Regulation, CXCL13 [1]: -2.43 | Fold Regulation, IL1A [1]: -75.02 | Fold Regulation, IL1B [1]: -3.92 | Fold Regulation, IL1R1 [1]: -2.45 | Fold Regulation, IL5 [1]: -4.29 | Fold Regulation, IL5RA [1]: -6.83 | Fold Regulation, IL10RA [1]: -2.36 | Fold Regulation, IL10RB [1]: -3.04 | Fold Regulation, IL15 [1]: -2.18 | Fold Regulation, IL16 [1]: -2.19 | Fold Regulation, IL17F [1]: -17.44 | Fold Regulation, IL27 [1]: -3.21 | Fold Regulation, LTB [1]: -2.77 | Fold Regulation, OSM [1]: -11.73 | Fold Regulation, RPLP0 [1]: -2.15 | Fold Regulation, TNF [1]: -30.83 | Fold Regulation, TNFRSF11B [1]: -3.73 | Fold Regulation, TNFSF10 [1]: -3.34 | Fold Regulation, TNFSF13B [1]: -4.76 | genes down regulated (twofold) [1]: 60 genes | decrease in TC-83 infectious titers (VEEV TC-83 [2]): ~ 100 fold | secretion of cytokines from TC-83 infected cells [3]: inhibit secretion of cytokines | inhibition of replication of EEEV (EEEV (GA97 strain)): higher than tenfold | lower levels of EEEV replication, pre-treated cells (EEEV (GA97 strain)): ~ 4.5 fold | production of cytokines, pro-inflammatory and anti-inflammatory, from uninfected cells [4]: decreased the production of cytokines | TrD inhibitory response, pre-treatment relative to no pre-treatment (VEEV TrD strain [5]): tenfold | decrease of TrD titers (VEEV TrD strain [5]): about 100 fold | inhibition of replication of RVFV (RVFV (MP-12 strain)): less than tenfold | CC50 (HMC3 cells): greater than 250 µg/mL | Fold Regulation, CCL13 [6]: 2.44 | Fold Regulation, CCL16 [6]: 3.4 | Fold Regulation, CCL22 [6]: 3.4 | Fold Regulation, CX3CR1 [6]: 2.38 | Fold Regulation, CXCL9 [6]: 3.12 | Fold Regulation, FASLG [6]: 2.15 | Fold Regulation, IL9R [6]: 2.56 | Fold Regulation, IL33 [6]: 3.21 | genes above/below a twofold regulation change [6]: 30 genes | genes down-regulated (twofold) [6]: 2 genes | genes upregulated (twofold) [6]: 28 genes | decrease of TrD titers (VEEV TrD strain [7]): about 100 fold | decrease in extracellular genomic TC-83 RNA copy numbers (VEEV TC-83 [8]): more than 50% | decrease in intracellular genomic TC-83 RNA copy numbers (VEEV TC-83 [8]): more than 50% | inhibition of VEEV attachment (amount of viral RNA entering cells) (VEEV TC-83 [9]): tenfold | genomic TC-83 RNA copy numbers (intracellular and extracellular) (VEEV TC-83 [10]): reduced

FQVVKFRFWVWWFRWR [G8]
VEEV TC-83 titer inhibition (VEEV TC-83 [11]): comparable to a known inhibitor, bortezomib

ILPWKWPWWPWRR-NH2 [Indolicidin, indolicidin]
antiviral activity against VEEV (VEEV TC-83 [12]): no antiviral activity

LL-37 (LLGDFFRKSKEKIGKEFKRIVQRIKDFLRNLVPRTES; Antibacterial peptide LL-37; UniProt P49913 134-170, looked up)
inhibition of viral titers [13]: ~1,000 fold | inhibition of viral titers [14]: approximately 100 fold
